Measurements published in US9771378B2 (Denali Therapeutics, Inc., priority 2014, dated 2017).

Test system: Aβ42 (human neuroglioma H4 cells expressing human wild type APP751)
Assay: In vitro cell screening assay with sandwich ELISA quantification of Aβ42 peptide
Format: cell-based
Conditions: H4 cells stably expressing human wild type APP751; Pro293 chemically defined medium; compounds 0.003-10 μM; incubated overnight (16-18 h); supernatant Aβ42 by sandwich ELISA; normalized to DMSO and DAPT; read-out: Aβ42 H4 Prot Fre IC50
Procedure: Human neuroglioma H4 cells were transfected with a pcDNA3.1 plasmid expressing human wild type APP751 cDNA and a stable cell line was generated using G418 selection. Cells are plated at 15,000 cells/well in Costar 96-well plates and placed at 37° C. and 5% CO2. Six hours after plating, cells are washed three times with Pro293™ chemically defined medium, followed by addition of compounds (0.003-10 μM, final DMSO concentration of 0.33%). Plates were incubated overnight (16-18 h) and supernatant was removed for quantification of AP peptides by sandwich ELISA. Cytotoxicity was evaluated using Cell-Titer 96W AQueous One Solution Cell Proliferation Assay according to the manufacturer's protocol.
ELISA Measurements of Aβ Peptides
Aβ peptide levels were quantified by sandwich ELISA. 96-well plates are coated with C-terminal specific Aβ antibodies recognizing either Aβ37, Aβ38, Aβ40, Aβ42, Aβ43 or a N-terminal specific Aβ antibody to detect Aβ 1-x. Plates are then blocked overnight at 4° C. with 1% bovine serum albumin (BSA) in PBS-T. Plates are washed and 100 μl of cultured cell supernatant or synthetic Aβ peptide standards and a detection antibody (4G8-HRP) are applied to the blocked plate and incubated overnight at 4° C. The next day, wells are washed before the addition […] of detection substrate (TMB peroxidase). Plates are then read for absorbance at 450 nm on a Molecular Devices SpectraMax M5e Microplate Reader.
IC50 values were calculated from values reported as percent of DMSO controls using nonlinear regression, based on a sigmoidal dose-response (variable slope) model. GraphPAD software from Prism used for calculation.

Cc1cn(-c2ccc(Nc3ncc4c(n3)N(C)C(c3cc(F)c(F)cc3C(F)(F)F)CO4)cc2F)cn1 (single isomer, unassigned) [Example 198A]
IC50: 1.11 µM

Cc1cn(-c2ccc(Nc3ncc4c(n3)N(C)C(c3cc(F)c(F)c(F)c3)CO4)cc2F)cn1 (single isomer, unassigned; (-)) [Example 118B]
IC50: 1.34 µM

Cc1cn(-c2ccc(Nc3ncc4c(n3)N3CCOC[C@@H]3CO4)cc2F)cn1 [Example 300]
IC50: 0.781 µM

COc1cc(Nc2ncc3c(n2)N(C)C(c2ccccc2C(F)(F)F)CO3)ccc1-c1ccnc(C)c1 (single isomer, unassigned; (+)) [Example 70B]
IC50: 0.151 µM

Cc1cc(-c2ccc(Nc3ncc4c(n3)N(C)C(c3ccccc3)CO4)cc2)ccn1 (single isomer, unassigned; (+)) [Example 24A]
IC50: 0.068 µM

Cc1cn(-c2ccc(Nc3ncc4c(n3)N(C)C(c3cc(F)c(F)c(F)c3)CO4)cc2)cn1 (single isomer, unassigned; (-)) [Example 115A]
IC50: 2.86 µM

Cc1cn(-c2ccc(Nc3ncc4c(n3)N(C)C(c3ccccc3C)CO4)cc2F)cn1 (racemic) [Example 34]
IC50: 0.044 µM

COc1cc(Nc2ncc3c(n2)N(C)C(c2cc(F)c(F)cc2F)CO3)ccc1-n1cnc(C)c1 (single isomer, unassigned; (+)) [Example 97B]
IC50: 0.013 µM

COc1cc(Nc2ncc3c(n2)N(C)C(C)(C)CO3)cnc1-c1cnn(C)c1 [Example 270]
IC50: > 3 µM

COc1cc(Nc2ncc3c(n2)N2CCOC[C@@H]2CO3)ccc1-n1cnc(C)c1 [Example 296]
IC50: 0.759 µM

Cc1cn(-c2ccc(Nc3ncc4c(n3)N(C)C(c3ccccc3)CO4)cc2)cn1 (single isomer, unassigned; (-)) [Example 26B]
IC50: 3.14 µM

COc1cc(Nc2ncc3c(n2)N(C)C(c2cc(C(F)(F)F)ccc2Cl)CO3)ccc1-n1cnc(C)c1 (single isomer, unassigned; (+)) [Example 88A]
IC50: 0.037 µM

COc1cc(Nc2ncc3c(n2)N(C)C(Cc2ccccc2)CO3)ccc1-n1cnc(C)c1 (single isomer, unassigned; (-)) [Example 47B]
IC50: 0.065 µM

COc1ccc(C)c(C2COc3cnc(Nc4ccc(-n5cnc(C)c5)c(OC)c4)nc3N2C)c1 (racemic) [Example 90]
IC50: 0.027 µM

Cc1cn(-c2ccc(Nc3ncc4c(n3)N(C)C(c3ccc(F)cc3Cl)CO4)cc2F)cn1 (single isomer, unassigned; (+)) [Example 101A]
IC50: 0.075 µM

COc1cc(Nc2ncc3c(n2)N(C)C(c2cc(F)c(F)c(F)c2)CO3)ccc1-n1cnc(C)c1 (racemic) [Example 40]
IC50: 0.02 µM

COc1cc(Nc2ncc3c(n2)N(C)C(c2ccc(F)cc2F)CO3)ccc1-c1ccnc(C)c1 (single isomer, unassigned; (+)) [Example 63B]
IC50: 0.064 µM

Cc1cn(-c2ccc(Nc3ncc4c(n3)N(C)C3(CCCC3)CO4)cc2F)cn1 [Example 279]
IC50: 0.254 µM

COc1cc(Nc2ncc3c(n2)N(C)C(c2cc(F)c(F)c(F)c2)CO3)ccc1-n1cnc(C)c1 (single isomer, unassigned; (-)) [Example 40A]
IC50: 0.279 µM

COc1cc(Nc2ncc3c(n2)N(C)[C@@H](c2ccccc2)CO3)ccc1-n1cnc(C)c1 [Example 21A, (S)—N-(3-methoxy-4-(4-methyl-1H-imidazol-1-yl)phenyl)-8-methyl-7-phenyl-7,8-dihydro-6H-pyrimido[5,4-b][1,4]oxazin-2-amine]
IC50: 0.022 µM

COC[C@@H]1COc2cnc(Nc3ccc(-n4cnc(C)c4)c(OC)c3)nc2N1C [Example 176]
IC50: 0.369 µM

COc1cc(Nc2ncc3c(n2)N(C)C(C(F)(F)F)CO3)cnc1-n1cnc(C)c1 (single isomer, unassigned; (+)) [Example 193A]
IC50: 0.908 µM

COc1cc(Nc2ncc3c(n2)N(C)C(c2ccccc2OC(F)(F)F)CO3)ccc1-n1cnc(C)c1 (single isomer, unassigned; (-)) [Example 60A]
IC50: 0.092 µM

Cc1cn(-c2ccc(Nc3ncc4c(n3)N(C)C(c3cc(F)cc(F)c3)CO4)cc2)cn1 (racemic) [Example 23]
IC50: 0.0379 µM

Cc1cc(-c2ccc(Nc3ncc4c(n3)N(C)C(c3ccccc3C)CO4)cc2)ccn1 (single isomer, unassigned; (-)) [Example 29A]
IC50: 1.1 µM

COc1cc(Nc2ncc3c(n2)N(C)C(C)CO3)ccc1-n1cnc(C)c1 (single isomer, unassigned; (-)) [Example 116A]
IC50: 0.148 µM

Cc1cn(-c2ccc(Nc3ncc4c(n3)N(C)C(c3ccc(Cl)cc3C(F)(F)F)CO4)cc2F)cn1 (single isomer, unassigned; (-)) [Example 106B]
IC50: 1.02 µM

COc1cc(Nc2ncc3c(n2)N(C)C(c2ccccc2OC(F)(F)F)CO3)ccc1-n1cnc(C)c1 (single isomer, unassigned; (+)) [Example 60B]
IC50: 0.078 µM

COc1cc(Nc2ncc3c(n2)N(C)C(c2cc(F)cc(F)c2)CO3)ccc1-n1cnc(C)c1 (single isomer, unassigned; (-)) [Example 30A]
IC50: 0.177 µM

COc1nc(Nc2ncc3c(n2)N(C)C(c2ccccc2C)CO3)ccc1-n1cnc(C)c1 (single isomer, unassigned; (+)) [Example 180B]
IC50: 0.374 µM

Cc1cn(-c2ccc(Nc3ncc4c(n3)N(C)C(C)CO4)cc2F)cn1 (single isomer, unassigned; (-)) [Example 108A]
IC50: 0.567 µM

Cc1cc(-c2ccc(Nc3ncc4c(n3)N(C)C(c3ccccc3C)CO4)cc2)ccn1 (racemic) [Example 29]
IC50: 0.297 µM

COc1nc(Nc2ncc3c(n2)N(C)C(c2cc(F)c(F)cc2F)CO3)ccc1-n1cnc(C)c1 (racemic) [Example 191]
IC50: 2.25 µM

COc1cc(Nc2ncc3c(n2)N2CC(F)(F)C[C@H]2CO3)ccc1-n1cnc(C)c1 [Example 297, (S)-8,8-difluoro-N-(3-methoxy-4-(4-methyl-1H-imidazol-1-yl)phenyl)-6a, 7,8,9-tetrahydro-6H-pyrimido [5,4-b] pyrrolo [1,2-d] [1, 4] oxazin-2-amine]
IC50: 0.099 µM

COc1cc(Nc2ncc3c(n2)N(C)[C@@H](C(C)(C)C)CO3)cnc1-n1cnc(C)c1 [Example 246]
IC50: 0.024 µM

COc1cc(Cl)c(C2COc3cnc(Nc4ccc(-n5cnc(C)c5)c(OC)c4)nc3N2C)cc1Cl (single isomer, unassigned; (-)) [Example 174A]
IC50: 0.15 µM

Cc1cc(-c2ccc(Nc3ncc4c(n3)N(C)C(c3ccc(F)cc3)CO4)cc2F)ccn1 (single isomer, unassigned; (+)) [Example 56A]
IC50: 0.071 µM

COc1cc(Nc2ncc3c(n2)N(C)C(C2COC2)CO3)ccc1-n1cnc(C)c1 (single isomer, unassigned; (-)) [Example 241A]
IC50: 0.39 µM

Cc1cn(-c2ccc(Nc3ncc4c(n3)N(C)C(c3ccccc3)CO4)cc2F)cn1 (single isomer, unassigned; (+)) [Example 25A]
IC50: 0.014 µM

COc1cc(Nc2ncc3c(n2)N(C)C(c2ccc(F)cc2F)CO3)ccc1-n1cnc(C)c1 (single isomer, unassigned; (-)) [Example 48A]
IC50: 0.328 µM

Cc1cn(-c2ccc(Nc3ncc4c(n3)N(C)C(C(F)(F)F)CO4)cc2C#N)cn1 (single isomer, unassigned; (-)) [Example 232B, (−)-2-(4-methyl-1H-imidazol-1-yl)-5-((8-methyl-7-(trifluoromethyl)-7,8-dihydro-6H-pyrimido [5,4-b] [1, 4]oxazin-2-yl)amino) benzonitrile]
IC50: 0.017 µM

Cc1cn(-c2ccc(Nc3ncc4c(n3)N(C)C(C)CO4)cn2)cn1 (single isomer, unassigned; (+)) [Example 194A]
IC50: 0.97 µM

COc1nc(Nc2ncc3c(n2)N(C)C(C)CO3)ccc1-n1cnc(C)c1 (racemic) [Example 190]
IC50: > 3 µM

Cc1cn(-c2ccc(Nc3ncc4c(n3)N(C)C(c3cc(F)c(F)c(F)c3)CO4)cc2)cn1 (single isomer, unassigned; (+)) [Example 115B]
IC50: 0.022 µM

COc1cc(Nc2ncc3c(n2)N(C)[C@H](CO)CO3)ccc1-n1cnc(C)c1 [Example 177, (R)-(2-((3-methoxy-4-(4-methyl-1H-imidazol-1-yl)phenyl)amino)-8-methyl-7,8-dihydro-6H-pyrimido [5,4-b] [1, 4]oxazin-7-yl) methanol]
IC50: 0.262 µM

COc1cc(Nc2ncc3c(n2)N(C)C(C)CO3)ccc1-n1cnc(C)c1 (racemic) [Example 52]
IC50: 0.205 µM

COc1cc(Nc2ncc3c(n2)N(C)C(C2CCOCC2)CO3)ccc1-n1cnc(C)c1 (single isomer, unassigned; (-)) [Example 114A]
IC50: 0.494 µM

COc1cc(Nc2ncc3c(n2)N(C)C(Cc2ccccc2)CO3)ccc1-c1ccnc(C)c1 (single isomer, unassigned; (+)) [Example 68A]
IC50: 0.05 µM

Cc1cn(-c2ccc(Nc3ncc4c(n3)N(C)C(c3cc(F)cc(F)c3)CO4)cc2F)cn1 (racemic) [Example 33]
IC50: 0.038 µM

COc1cc(Nc2ncc3c(n2)N(C)C2(CC2)CO3)cnc1-c1cnn(C)c1 [Example 268]
IC50: 2.78 µM
